Reference: patent US20180228801A1, “Method for Enhancing Learning Ability and Memory of Patients with Alzheimer's Disease using Mocetinostat” (National Taiwan Normal University, priority 2017, published 2018)

What was measured:
PSD95 = assay: Western blot, PSD95; format: in vivo, mice (C57BL/6J); conditions: hippocampus
Description: (§1) Further, in some embodiments of the present invention, C57BL/6J strain male mice (12 week old) are used as a subject in need. After mice are allowed to adapt to the environment for 6 days, mice are anesthetized with Avertin (0.4 g/kg; purchased from Sigma). The mice are fixed on a stereotactic apparatus for operation, followed by injecting oligomeric Aβ25-35 (10 nM, 3 μL) into bilateral hippocampal CA1 (AP: […] relative to the bregma; ML: ±[…] relative to the midline; DV: […] relative to the skull) on day 7. MGCD0103 and equal volume of vehicle (saline) are intraperitoneal (i.p.) injected once a day from day 8, the day after said operation, for 29 days. On day 24, the Open Field Test is performed; on day 26, the EPM is performed; on day 28, the Y-maze is performed; on days 30 to 36, MWM is performed; and on day 37, mice are euthanized for pathological analysis.

acetylated alpha-tubulin = assay: Western blot, acetylated alpha-tubulin; format: in vivo, mice (C57BL/6J); conditions: chronic i.p. treatment, hippocampus
Description: as §1

[1] = test system: cholinergic neurons in medial septum/diagonal band (MS/DB); assay: Immunohistochemical staining, cholinergic neurons (ChAT); format: in vivo, mice (C57BL/6J); conditions: saline-injected mice; Mean±SEM
Description: as §1
The inventor collects the brain tissue by perfusion followed by fixing and dehydrating, then, 30 μm frozen sections are obtained by a freezing microtome (CMS3050S, Leica). […] After that, avidin-biotin complex (ABC) is detected 1 hour after staining. […] After all sections have been stained, they are then fixed on a slide, dried, dehydrated, mounted, and photographed for quantity (performed by Image Pro Plus, Meida Cyberetics, USA). […]

[2] = test system: acetylated tissue proteins H3; assay: Western blot, acetylated H3; format: in vivo, mice (C57BL/6J); conditions: chronic i.p. treatment, hippocampus
Description: as §1

Tau protein at Thr-205 = assay: Western blot, Tau phosphorylation at Thr-205; format: in vivo, mice (C57BL/6J); conditions: Aβ25-35 mice, hippocampus
Description: as §1

[3] = test system: primary hippocampus neurons; assay: Primary hippocampus neurons damaged by oligomeric Aβ25-35, immune-fluorescent staining (NeuN, MAP2); format: cell-based, mouse (C57BL/6J); conditions: 48 hours after 50 μM oligomeric Aβ25-35, vs group treated with Aβ25-35
Description: (§2) The method of culturing mouse primary hippocampus neurons follow from a modified method from the prior art (Seibenhener and Wooten, 2012), including: obtaining a 16-18 day old embryo from a C57BL/6J strain pregnant female mouse after euthanasia, obtaining hippocampus tissue of the embryo and digesting the tissue with 0.05% trypsin at 37° C. for 15 minutes, and seeding 3×10^4 cells per well in a 48-well plate coated with Poly-L-lysine (100 μg/mL); wherein the components of the medium includes: Neurobasal Medium® (Gibco™; ThermoFisher Scientific, USA) adding 2% of B-27® Additive (Gibco™; ThermoFisher), 0.5 mM of glutamine (Gibco™; ThermoFisher), 25 μM of glutamate (Sigma-Aldrich, USA), 20 unit/mL of penicillin/streptomycin solution (Gibco™; ThermoFisher Scientific, USA), 1 mM of 4-(2-hydroxyethyl)-1-piperazineethanesulfonic acid) (HEPES) (Sigma-Aldrich), and 1% of heat inactivated Donor Horse Serum (Gibco™; ThermoFisher). Primary hippocampus neurons are cultured in an incubator in an environment of 37° C. and 5% CO2.
In some embodiments, experiments should be performed when said cells are in an Alzheimer's disease state. […] Further, 50 μM of oligomeric Aβ25-35 are applied for 1 hour, and then a high dose (70 nM) and low dose (35 nm) of MGCD0103 is applied for 48 hours on day 9. Finally, the cells are collected for immune-fluorescent staining.
The collected cells are analyzed with immune-fluorescence staining. First, fixing the cells with 4% of paraformaldehyde (PFA) (Sigma-Aldrich) for 30 minutes; rinsing the cells three times with PBST with a time interval of 10 minutes so as to remove remaining PFA; blocking the cells with 10% fetal bovine serum (FBS) for 2 hours; adding NeuN (1:1000; Milipore, USA) and MAP2 (1:1000; Milipore, USA) primary antibodies and allowing reaction at 4° C. for 16 hours; then allowing reaction with secondary antibodies at 37° C. for 2 hours; finally, staining nucleus with […] (DAPI) (Sigma-Aldrich) and analyzing to obtain values such as numbers of neurons, lengths of synapses, and numbers of branches with a High Content Micro-Imaging Acquisition and Screening System and MetaXpress (purchased from Molecular Devices).

[4] = test system: primary hippocampus neurons; assay: Cell viability analysis (MTT assay); format: cell-based, mouse (C57BL/6J); conditions: Mus musculus, Neuron; primary hippocampus neurons treated on day 9, viability after 48 hours; read-out: IC50 dose, cell viability
Description: as §2, with “Primary hippocampus neurons are cultured in an incubator in an environment of 37° C. and 5% CO2.” left out
(3-(4,5-Dimethylthiazol-2-yl)-2,5-diphenyltetrazolium bromide, MTT) (Sigma, USA) has an original color of yellow, which is able to carry out a reducing reaction by a succinate dehydrogenase of mitochondria within living cells that breaks the tetrazolium ring thereof so as to form formazan, which has a violet color. […] Finally, the cell viability may be analyzed by detecting the changes of violet color (O.D. 570) by a spectrophotometer. […]

[5] = test system: Aβ accumulation in hippocampal CA1; assay: Immunohistochemical staining, Aβ accumulation (6E10); format: in vivo, mice (C57BL/6J); conditions: Aβ25-35 mice
Description: as §1
The inventor collects the brain tissue by perfusion followed by fixing and dehydrating, then, 30 μm frozen sections are obtained by a freezing microtome (CMS3050S, Leica). […] After that, avidin-biotin complex (ABC) is detected 1 hour after staining. […] After all sections have been stained, they are then fixed on a slide, dried, dehydrated, mounted, and photographed for quantity (performed by Image Pro Plus, Meida Cyberetics, USA).

Nc1ccccc1NC(=O)c1ccc(CNc2nccc(-c3cccnc3)n2)cc1 [MGCD0103, N-(2-Aminophenyl)-4-[[(4-pyridin-3-ylpyrimidin-2-yl)amino]methyl] benzamide]
expression of PSD95 (PSD95): no significant difference
acetylation level of alpha-tubulin (acetylated alpha-tubulin): significantly improve
ChAT, numbers of cholinergic neurons [1]: 52.75 ± 8.27
acetylation level of tissue proteins H3 [2]: significantly improve
phosphorylation expression of Tau protein at Thr-205 (Tau protein at Thr-205): decreased
lengths of neurites ([3]; high dose (70 nM)): significantly improved
numbers of neuron cells (NeuN+) ([3]; high dose (70 nM)): significantly improved
lengths of neurites ([3]; low dose (35 nM)): significantly improved
numbers of neuron cells (NeuN+) ([3]; low dose (35 nM)): significantly improved
IC50 [4]: ~7 µM
Aβ accumulation within the hippocampal CA1 [5]: relieved
